Measurements published in patent US12005125B2, “Nanoparticles for use in photodynamic therapies and methods of making, evaluating and using the same” (Mi2 Holdings LLC, priority 2020, dated 2024).

What was measured:
[1] = ADMA fluorescent probe test: rate of total Type 1 and 2 ROS production by an illuminated photosensitizer (k-value); assay type: physicochemical; conditions: for k (rate constant of Type 1 and 2 ROS production, slope of Ln(I/I0) of ADMA vs time): free PS illuminated at the wavelength of its maxima, [PS] E-6 (clinically relevant 1-2 uM); for k′ (k/kstd): relative to methylene blue (MB) as standard; for k″ (1−k′): x coordinate of PS grid, MB = origin
From the text: (§1) Discussed below are evaluations methods and system for evaluating a PS for Type ½ Production. The above describes the parameters that would best define an ideal practical PS. […] This can be semi-quantitatively analyzed using fluorescent molecular probes that scavenge Type ½ ROS. Two specific probes ideal for this are 9,10-anthracene bis(methylene) dimalonic acid (ADMA) and singlet oxygen sensor green (SOSG).
(§2) Anthracene and its derivatives are sensitive to both Type 1 and Type 2 ROS, while SOSG is specifically for Type 2 ROS studies.^9 By tracking the fluorescent changes of these probes over time, the Type ½ ROS and rates of production by a set of PSs can be directly compared in a semi-quantitative manner. In the work to follow, AMDA is the anthracene derivative utilized.
ADMA decays according to first order rate law kinetics. As such, the rate of total Type 1 and 2 ROS may be studied by tracking its fluorescence loss over time as a natural log, yielding a linear plot whose slope is the rate constant of Type 1 and 2 ROS production (referred to as the k-value). The greater the rate constant, the more Type 1 and Type 2 ROS being produced, and thus PSs compared under identical conditions (equivalent [PS], [02], flux, temp) can be semi-quantitatively compared.
(§3) Combining the findings of the SOSG and ADMA tests, semi-quantitative comparisons and estimates about the performance of PSs in a given set may be extrapolated, when performed under identical conditions (equivalent [PS], [O2], flux, temp). This will aid in choosing a PS that maximizes PDT efficacy by showing it has a minimum of Type 1 ROS and maximum of Type 2 ROS production, while also producing at a sufficient rate to efficiently ablate tissue.
(§4) The exact method of study is as follows, using a factory default Horiba Duetta:
(§5) 3. Pulse the molecular probe for initial fluorescence
(§6) • a. Simple fluorescence scan • b. […] Ex/Em slits for both=⅔ nm, Integration for 1 second, 5 scans • e. The peak of highest counts is used 2. The PS is illuminated using the wavelength of its maxima for a set amount of time • a. Fixed wavelength fluorescent study mode; choose a time point desired • b. Ex/Em bandwidth=10/1 nm 4. Pulse the molecular probe for fluorescent changes 5. Repeat Steps 2 and 3 until the range time values desired is covered 6. Treat the data • a. Anthracene=Ln(I/I0) vs time; slope=k-value • b. SOSG=I/I0 vs time; slope=S-value
(§7) Using a PS as an assigned origin (standard by which all other PSs are compared to), any PS may be charted by comparing the k and S-values (k/kstd=k′, S/Sstd=S′, k″=1−k′, S″=S′−1) at clinically relevant concentrations (1-2 uM). By plotting the k″ and S″ values as x,y coordinates (respectively), the semi-quantitative comparison of PSs against each other may be directly visualized; the origin PS will have a position of 0,0. The x-axis will then stretch from −∞ to 1, and y-axis from −1 to ∞.

[2] = SOSG (singlet oxygen sensor green) fluorescent probe test: Type 2 ROS production by an illuminated photosensitizer (S-value); assay type: physicochemical; conditions: for S (slope of SOSG I/I0 vs time, Type 2 ROS production): free PS illuminated at the wavelength of its maxima, [PS] E-6 (clinically relevant 1-2 uM); for S′ (S/Sstd): relative to methylene blue (MB) as standard; for S″ (S′−1): y coordinate of PS grid, MB = origin
From the text: as §1, §2
SOSG functions in a manner opposite to that of the anthracene probe; instead of a fluorescence loss, SOSG experiences a fluorescence enhancement when interacting with Type 2 ROS; Type 1 ROS has no effect. […] Therefore, the steeper the slope (S-value), the more Type 2 ROS being produced.
as §3, §4, §5, §6, §7

[3] = cited from earlier work
[4] = when covalently conjugated to 8PEGA; cited from earlier work

## CN(C)c1ccc2nc3ccc(=[N+](C)C)cc-3sc2c1 [MB, Methylene blue]
[1]
  k (rate constant of Type 1 and 2 ROS production, slope of Ln(I/I0) of ADMA vs time): 6.13 E-4 s^−1
  k′ (k/kstd): 1
  k″ (1−k′): 0.00
[2]
  S (slope of SOSG I/I0 vs time, Type 2 ROS production): 0.46 E−2 s^−1
  S′ (S/Sstd): 1
  S″ (S′−1): 0.00

## CCNc1cc2[s+]c3cc(NCC)c(C)cc3nc2cc1C.[Cl-] [NMB, New Methylene Blue]
[1]
  k (rate constant of Type 1 and 2 ROS production, slope of Ln(I/I0) of ADMA vs time): 12.1 E-4 s^−1
  k′ (k/kstd): 1.97
  k″ (1−k′): −0.97
[2]
  S (slope of SOSG I/I0 vs time, Type 2 ROS production): 0.96 E−2 s^−1
  S′ (S/Sstd): 2.09
  S″ (S′−1): 1.09

## Verteporfin
[1]
  k (rate constant of Type 1 and 2 ROS production, slope of Ln(I/I0) of ADMA vs time): 0.16 E-4 s^−1
  k′ (k/kstd): 0.03
  k″ (1−k′): 0.97
[2]
  S (slope of SOSG I/I0 vs time, Type 2 ROS production): 0.06 E−2 s^−1
  S′ (S/Sstd): 0.13
  S″ (S′−1): −0.87

## IRDye 700DX HHS Ester [IR700]
[3]
  solubility in water: water soluble, having good solubility
[1]; [PS] 3.99E−06
  k-vlaue (E-4): 2.62 E-4
[1]
  k (rate constant of Type 1 and 2 ROS production, slope of Ln(I/I0) of ADMA vs time): 1.83 E-4 s^−1
  k′ (k/kstd): 0.299
  k″ (1−k′): 0.70
[2]; [PS] 3.91E−06
  SOSG (E-2): 2.89 E-2
[2]
  S (slope of SOSG I/I0 vs time, Type 2 ROS production): 2.04 E−2 s^−1
  S′ (S/Sstd): 4.43
  S″ (S′−1): 3.43

## Chlorin e6 [Ce6]
[3]; when covalently conjugated to 8PEGA
  solubility in aqueous media: markedly enhanced
[1]
  k (rate constant of Type 1 and 2 ROS production, slope of Ln(I/I0) of ADMA vs time): 0.94 E-4 s^−1
  k′ (k/kstd): 0.153
  k″ (1−k′): 0.85
[2]
  S (slope of SOSG I/I0 vs time, Type 2 ROS production): 0.73 E−2 s^−1
  S′ (S/Sstd): 1.59
  S″ (S′−1): 0.59
[4]
  k-values: improved
